In patent publication US20250213526A1, “TRIPLE UPTAKE INHIBITOR FOR THE TREATMENT OF ATYPICAL DEPRESSION” (priority 2022, published 2025):
Entries after “also recorded” stand apart in the source; their conditions may differ.

How the values were obtained:
[1] = tested on: adult male Sprague Dawley rats; experiment: Progressive ratio (PROG)/Chow feeding choice task; type: in vivo, rat; conditions: for standard chow intake vs VEH / lever pressing vs VEH: 30-minute session; for chow intake vs VEH, high responders / lever pressing vs VEH, high responders: high responder group (n=15); for lever presses, low responders (chow-intake analysis, FIG. 15) / lever pressing vs VEH, low responders: low responder group (n=16); for lever presses, low responders (chow-intake analysis, FIG. 15): Dunnett's test
Protocol: The PROG/Chow feeding choice procedure was used as a test designed to evaluate the effort a rat is willing to make to eat a palatable food by pressing a lever instead of eating freely available standard food.
Methods. Thirty-one (n=31) adult male Sprague Dawley rats were used in this study. The animals were restricted to 85% of their free-feeding weight, with modest growth allowed throughout the study period. Animals were assessed using operant conditioning chambers. Animals were first introduced to the high carbohydrate pellets (“palatable food”) and trained to lever press using a continuous reinforcement schedule with a fixed ration of one (FR1=one active lever press trigger the delivery of the palatable food) for one week. After this, the rats were trained on the progressive ratio (progressively more lever pressures were needed to trigger the delivery of the palatable food) schedule alone for nine weeks at which point chow (“standard food”) was introduced (=PROG/Chow feeding choice procedure), and animals trained for another 5 weeks to acquire a steady baseline. Each session lasted 30 minutes and rats ran in the operant chambers once a day, five days a week (Monday-Friday). Vehicle (VEH), or Compound 1 doses of 5.0, 10.0, and 20.0 mg/kg were administered via oral gavage once a week (Thursday or Friday) after the training period. Treatment conditions were selected randomly. Lever presses and chow consumption (including spillage) were recorded after each operant session.
Statistical analyses. Repeated measures analysis of variance test (ANOVA) and planned comparisons were used to assess the data overall. Factorial ANOVA was used to assess group x treatment interaction. If significant interactions were found, planned comparisons (using the overall error term) were used to assess the groups individually. Dunnett's tests were also used to analyze differences between drug treatments and VEH. A p value of <0.05 was considered statistically significant for all analyses.

[2] = tested on: Male Long Evans Rats; experiment: 5-choice serial reaction time task (5-CSRTT); type: in vivo, rat
From the text: The 5-choice serial reaction time task (5-CSRTT) is widely used to measure attentional performance and response control (motor impulsivity) in rodents. A strength of the test is its adaptability to task modification. Variations to stimulus duration and frequency of stimulus presentation, amongst others, have become commonly used to challenge performance in the context of attention and response control. The primary objective of these studies was to examine the effect of Compound 1 on attentional performance and on aspects of response control, defined as premature responses (PREM) and perseverative responses (PSV), measures of impulsive action, and compulsive action respectively. Two experimental manipulations were undertaken to differentially challenge performance. Specifically, (1) test Compound 1 (1, 3, 10 mg/kg) under standard test conditions of 0.75 s SD, 5 s ITI, 100 trials, and (2) test Compound 1 (1, 3 mg/kg) against a long ITI challenge. The long ITI challenge is designed to elevate PREM and PSV responses and so provide a means to examine the effect of both test articles on measures of impulsive and compulsive action.
• Dosage form: 0.3% Tween80 in 0.9% Saline • Pretreatment time: 180 minutes
• Dosage form: Compound 1 was suspended in 0.3% Tween80 in 0.9% Saline and sonicated. Drug was administered at a volume of 5 mL/kg, oral (PO) route. • Pretreatment time: 180 minutes • Doses tested: Phase 1: 1, 3, 10 mg/kg; Phase 2: 1, 3 mg/kg
Housing and Management of Test System: Following a one-week period of familiarization to the test facility, animals were placed on a restricted diet regimen, in which they were fed approximately 20 g of standard laboratory chow once per day (corresponding to ˜80% of normal food consumption) following the completion of study procedures (between 16:00 h and 18:00 h). Overall food intakes were therefore based on food earned during 5-choice training/testing and chow at the end of each study day. On days where no training/testing occurred, the daily allotted lab chow was increased to approximately 24 g per animal. Water was available ad-libitum except during 5-choice training/testing sessions. Animals were maintained on a 12 h/12 h light/dark cycle with all testing conducted during the animals' light cycle.
5-choice serial reaction time task: 5-choice operant chambers were housed in sound-insulated and ventilated enclosures. Chambers consisted of an aluminum enclosure (25×30 cm), containing a reward magazine attached to a food pellet dispenser and house light on one wall, and on the opposite wall an array of 5 square niches (2.5×2.5×2.5 cm) arranged on a curved panel and raised 2.5 cm from the grid floor. An LED was positioned at the rear of each niche. Each niche, and the reward magazine, also contained a photocell to detect head entry. Test chambers were controlled by Med PC software.
The 5-CSRTT schedule began with the illumination of the house light and delivery of a food pellet. A nose-poke into the magazine tray initiated the first trial which consisted of an inter-trial interval (ITI, 5 s) followed by the random illumination of one of the 5 lights for a fixed interval (stimulus duration, SD). If a nose-poke was registered in the illuminated niche before the end of either the SD, or a fixed interval after this period (limited hold, LH) a further pellet was dispensed and a Correct Trial registered. […] PSV responses were not punished by a TO.
Each session ran for either 100 trials or 60 min, depending on which session endpoint was achieved first. Animals were trained via a series of steps to final test conditions of 0.75 s SD, 5 s ITI, 5 s limited hold. Target performance was stable performance around a threshold of 80% correct ([correct/(correct+incorrect)]*100) and <20% omissions for at least a two week period. At this point drug testing began according to a repeated measures design with animals receiving treatment over repeated test sessions. […]

[3] = 10.0 mg/kg oral gavage, n=31, p<0.001
[4] = 20.0 mg/kg oral gavage, n=31, p<0.001
[5] = standard conditions 0.75 s SD, 5 s ITI, 100 trials, 1, 3, 10 mg/kg PO, P<0.01
[6] = standard conditions, 1, 3, 10 mg/kg PO

SMILES: CCC[C@]1(C(=O)c2ccc(Cl)c(Cl)c2)CCNC1 [Compound 1, (3,4-dichloro-phenyl)-((S)-3-propyl-pyrrolidin-3-yl)-methanone]
- standard chow intake vs VEH ([1]; 5.0 mg/kg oral gavage, n=31, p<0.001): significant decreases
- lever pressing vs VEH ([1]; 5.0 mg/kg oral gavage, n=31, p=n.s.): No significant difference
- lever pressing vs VEH [1, 3]: significant decreases in lever pressing
- standard chow intake vs VEH [1, 3]: significant decreases
- lever pressing vs VEH [1, 4]: significant decreases in lever pressing
- standard chow intake vs VEH [1, 4]: significant decreases
- overall conclusion on appetite ([1]; 5.0-20.0 mg/kg oral gavage): appetite suppressant effects
- chow intake vs VEH, high responders ([1]; 5.0 mg/kg, p<0.010): significant decreases in chow intake
- lever pressing vs VEH, high responders ([1]; 5.0 mg/kg, p=n.s.): no significant difference
- chow intake vs VEH, high responders ([1]; 10.0 mg/kg, p<0.001): significant decreases in chow intake
- lever pressing vs VEH, high responders ([1]; 10.0 mg/kg, p<0.001): significant decreases in lever pressing
- chow intake vs VEH, high responders ([1]; 20.0 mg/kg, p<0.001): significant decreases in chow intake
- lever pressing vs VEH, high responders ([1]; 20.0 mg/kg, p<0.001): significant decreases in lever pressing
- lever presses, low responders (chow-intake analysis, FIG. 15) ([1]; 5.0 mg/kg, p<0.001): significant decreases in lever presses
- lever pressing vs VEH, low responders ([1]; 5.0 mg/kg, p=n.s.): no significant differences
- lever presses, low responders (chow-intake analysis, FIG. 15) ([1]; 10.0 mg/kg, p<0.001): significant decreases in lever presses
- lever pressing vs VEH, low responders ([1]; 10.0 mg/kg, p=n.s.): no significant differences
- lever presses, low responders (chow-intake analysis, FIG. 15) ([1]; 20.0 mg/kg, p<0.001): significant decreases in lever presses
- lever pressing vs VEH, low responders ([1]; 20.0 mg/kg, p=n.s.): no significant differences
- PREM responses in low/high impulsive subgroups ([2]; 10 s ITI schedule, 1 and 3 mg/kg PO, LI and HI subgroups, P<0.01): main effects of treatment and subgroup x treatment interactions
- PSV responses in low/high impulsive subgroups ([2]; 10 s ITI schedule, 1 and 3 mg/kg PO, LI and HI subgroups, treatment P=0.02, interaction P<0.01): main effects of treatment and subgroup x treatment interactions
- any task measure (accuracy % correct, % hit, PREM/PSV responses) ([2]; 10 s ITI, 0.3 s SD schedule, 1 and 3 mg/kg PO, all N=21 rats, F2,40≤2.5, NS): no main effects of treatment on any measure
- impulsive behaviors in rats ([2]; FIGS. 10A and 10B): reduces impulsive behaviors
- perseverative (PSV) responses relative to vehicle [2, 5]: dose-related decrease; also recorded: dose-dependently reduced
- premature (PREM) responses relative to vehicle [2, 5]: dose-related decrease; also recorded: dose-dependently reduced
- trial number ([2]; standard conditions, 10 mg/kg PO): decreased
- accuracy [2, 6]: no main effects of treatment; also recorded: no adverse effects
- speed of responding [2, 6]: no adverse effects
